Legend:
[1] = test system: laser-induced thrombosis in the arterioles and venules of the rat mesentery; assay: laser-induced thrombosis in arterioles of the rat mesentery; format: in vivo, rat (female Sprague-Dawley); conditions: for percentage improvement compared with the placebo controls: 10 mg/kg xanthine derivative and, 1 hour later, 1 mg/kg acetylsalicylic acid orally; for percentage improvement compared with the placebo controls / inhibition in vivo at 10 mg/kg: n = 3; for inhibition in vivo at 10 mg/kg: Rattus norvegicus, po, 10 mg/kg xanthine derivative orally, read-out: percentage improvement compared with the placebo controls; for Changes from controls, % / Changes from controls, absolute / Number of shots: single substance
Method: The evaluation was carried out by analysis by vital microscopy (Nature, 218 (1968) 887 and Haemostasis 13 (1983) 61 and IRCS Med. Sci. 12 (1984) 91).
The test substances were administered in 0.9% sodium chloride solution (which contained 1% carboxymethylcellulose (Serva, Heidelberg)) either orally, intraperitoneally or intravenously. Control animals were treated in the corresponding manner but without the test substances. The experimental animals used were male or female Sprague-Dawley or Wistar rats.
The animals which were to be investigated underwent s.c. premedication with 0.1 mg of atropine sulfate in solution and were anesthetized with 100 mg of ketamine hydrochloride and 4 mg of xylazine per kg of body weight i.p. The investigation made use of arterioles and venules of the mesentery, which was coated with degassed liquid paraffin, having a diameter of about 13 μm. The beam of a 4 W argon laser (supplied by Spectra Physics, Darmstadt) was introduced coaxially, by means of a beam adaptation and adjustment system (supplied by BTG, Munich), into the inverted optical path of a microscope (ICM 405, LD-Epipland 40/0.60; supplied by Zeiss, Oberkochen). The wavelength used was 514.5 nm, with an energy above the objective of 30.5 mW. The exposure time per single shot was 1/15 sec. All the measuring operations were recorded by video camera (Trinicon tube, Sony, Cologne) and stored in a recorder (Sony, U-matic 3/4"). The test substances were administered in various doses to the experimental animals, orally one hour, and on i.v. administration 10 min., before the start of the experiment, control animals receiving the same amount of placebo.
The number of shots needed to induce a defined thrombus is counted.
The results of the experiment were subjected to statistical analysis using the .chi.^2 test (L. Cavalli-Sforza, Biometrie (Biostatistics), Stuttgart, 1969, pages 49 et seq.). […]

[2] = test system: erythrocyte filterability; assay: erythrocyte filterability in adjuvant arthritis rats; format: in vivo, rat; conditions: oral 21 days
Method: (§1) The hemorheological, antithrombotic, antiaggregatory and antiinflammatory effects of the combinations according to the invention were investigated after oral administration for 21 days in the pathological model of adjuvant arthritis (induced with Mycobacterium butyricum) is the rat by the method of Clincal Hemorheology 3 (1983) 469-480, and were compared with those of the appropriate individual substances. Blood was taken from the thoracic aorta 1 hour after the last administration of substance. All the details of the determination of the hemorheological effect were as described in Clinical Hemorheology 4 (1984) 263-273. The erythocyte deformability was quantitatively determined in a filtrometer (Myrenne MF 4, Roetgen, Germany) by evaluation of the initial gradient of the flow curve.

[3] = test system: tendency to thrombosis in arthritic rat; assay: laser-induced tendency to thrombosis in arthritic rats; format: in vivo; conditions: 30 mg, oral 21 days
Method: as §1
The antithrombotic effect was measured using the laser model as described above.

rat aortas = rat aortas ex vivo, treatment of the animals; cited from earlier work
[4] = test system: induced platelet aggregation; assay: collagen-induced platelet aggregation in arthritic rats; format: in vivo, rat; conditions: 30 mg, oral 21 days
Method: as §1
The measurements of platelet aggregation were carried out as described above in detail. However, instead of arachidonic acid 0.04 mg of collagen was used to induce platelet aggregation in 1 ml of platelet-rich plasma (PA II aggregometer from Myrenne, Roetgen).

platelets = conditions: only at concentrations above those used in medicinal treatment; cited from earlier work
platelet aggregation = assay: ex vivo platelet aggregation (arachidonic acid, Born aggregometer); format: in vivo, rabbit
[5] = test system: adjuvant arthritis (Mycobacterium butyricum) in the rat; assay: antiinflammatory effect in adjuvant arthritis (paw edema, necrosis index); format: in vivo; conditions: 30 mg
Method: as §1
The antiflammatory effect was quantitatively measured, as quoted above, using the volume of the edema of the paw and using the standard necrosis index.

erythrocytes = conditions: treatment with pentoxifylline; cited from earlier work

Compound: CC(=O)CCCCn1cnc2c1c(=O)n(CCC(C)C)c(=O)n2C [1-(3-Methylbutyl-3-methyl-7-(5-oxo-hexyl)-xanthine]
- percentage improvement compared with the placebo controls [1]: 35%
- inhibition in vivo at 10 mg/kg [1]: 26%

Compound: CC(=O)CCCCn1cnc2c1c(=O)n(CC(C)C)c(=O)n2C [1-(2-Methylpropyl)-3-methyl-7-(5-oxohexyl-)-xanthine]
- percentage improvement compared with the placebo controls [1]: 39%
- inhibition in vivo at 10 mg/kg [1]: 28%

Compound: CCCCCCn1c(=O)c2c(ncn2C)n(C)c1=O [1-Hexyl-3,7-dimethylxanthine]
- percentage improvement compared with the placebo controls [1]: 46%
- inhibition in vivo at 10 mg/kg [1]: 39%

Compound: CCCn1cnc2c1c(=O)n(CCCCC(C)=O)c(=O)n2C [1-(5-Oxohexyl)-3-methyl-7-propylxanthine]
- percentage improvement compared with the placebo controls [1]: 56%
- inhibition in vivo at 10 mg/kg [1]: 42%

Compound: CC(C)CCn1c(=O)c2c(ncn2CCCCC(C)O)n(C)c1=O (stereo not drawn) [1-(3-Methylbutyl)-3-methyl-7-(5-hydroxyhexyl-)-xanthine]
- percentage improvement compared with the placebo controls [1]: 37%
- inhibition in vivo at 10 mg/kg [1]: 28%

Compound: CCCn1cnc2c1c(=O)n(CCC(C)=O)c(=O)n2C [1-(3-Oxobutyl)-3-methyl-7-propyl-xanthine]
- percentage improvement compared with the placebo controls [1]: 49%
- inhibition in vivo at 10 mg/kg [1]: 40%

Compound: CCCCn1c(=O)c2c(ncn2CC(C)=O)n(CCCC)c1=O [1-n-Butyl-3-n-butyl-7-(2-oxopropyl-)-xanthine]
- percentage improvement compared with the placebo controls [1]: 50%
- inhibition in vivo at 10 mg/kg [1]: 33%

Compound: CC(=O)CCCCn1c(=O)c2c(ncn2C)n(C)c1=O [Pentoxifylline, 1-(5-oxohexyl)-3,7-dimethylxanthine]
- Changes from controls, % ([1]; 5 mg/kg oral): 21%
- Changes from controls, absolute ([1]; 5 mg/kg oral): 0,46
- Number of shots ([1]; 5 mg/kg oral): 2,63
- Changes from controls, % ([1]; 10 mg/kg oral): 54%
- Changes from controls, absolute ([1]; 10 mg/kg oral): 1,16
- Number of shots ([1]; 10 mg/kg oral): 3,33
- Changes from controls, % ([1]; 30 mg/kg oral): 83%
- Changes from controls, absolute ([1]; 30 mg/kg oral): 1,8
- Number of shots ([1]; 30 mg/kg oral): 3,97
- -x (number of shots) ([1]; Table 1b, 10 mg/kg pentoxifylline orally without acetylsalicylic acid): 3,27
- % change from controls ([1]; Table 1b, 10 mg/kg pentoxifylline orally without acetylsalicylic acid, p < 0,05): +49%
- effect in laser-induced thrombosis ([1]; oral dose 10 mg/kg): significant effect
- effect in laser-induced thrombosis ([1]; single oral dose 5 mg/kg): not significant
- inhibition of thrombus formation ([1]; single oral dose 5 mg/kg): 20%
- erythrocyte filterability ([2]; 30 mg): 79%
- erythrocyte filterability in arthritic rats (in words) [2]: can be increased again
- tendency to thrombosis (number of shots) [3]: 87%
- release of a substance having antiaggregatory activity (rat aortas): can be increased
- induced platelet aggregation [4]: 94%
- in vitro aggregation of platelets (platelets): can be inhibited
- Aggregation amplitude E ex vivo (platelet aggregation; III, at 45 min, 10 mg/kg i.v. at 15 min): 22
- Aggregation amplitude E ex vivo (platelet aggregation; III, at 120 min, 10 mg/kg i.v. at 15 min and 10 mg/kg at 60 min): 20
- Percentage improvement, volume of paw edema, left paw [5]: 3%
- Percentage improvement, volume of paw edema, right paw [5]: 0%
- deformability of the erythrocytes (erythrocytes): improved

Compound: CC(O)CCCCn1cnc2c1c(=O)n(C(C)C)c(=O)n2C (stereo not drawn) [1-(Isopropyl)-3-methyl-7-(5-hydroxy-hexyl-)-xanthine]
- percentage improvement compared with the placebo controls [1]: 36%
- inhibition in vivo at 10 mg/kg [1]: 31%

Compound: CCCn1c(=O)c2c(ncn2CCCCC(C)O)n(C)c1=O (stereo not drawn) [1-Propyl-3-methyl-7-(5-hydroxyhexyl-)-xanthine]
- percentage improvement compared with the placebo controls [1]: 42%
- inhibition in vivo at 10 mg/kg [1]: 35%

Compound: CC(O)CCCCn1c(=O)c2c(ncn2C)n(C)c1=O (stereo not drawn) [1-(5-Hydroxyhexyl)-3,7-dimethyl-xanthine, 1-(5-hydroxyhexyl)-3,7-dimethylxanthine]
- percentage improvement compared with the placebo controls [1]: 68%
- inhibition in vivo at 10 mg/kg [1]: 52%

Compound: CCCn1cnc2c1c(=O)n(CCCCC(C)O)c(=O)n2C (stereo not drawn) [1-(5-Hydroxyhexyl)-3-methyl-7-propylxanthine]
- percentage improvement compared with the placebo controls [1]: 53%
- inhibition in vivo at 10 mg/kg [1]: 40%

Compound: CC(=O)CCCCn1c(=O)c2c(ncn2CC(C)C)n(C)c1=O [1-(5-Oxohexyl)-3-methyl-7-(2-methyl-propyl-)-xanthine]
- percentage improvement compared with the placebo controls [1]: 39%
- inhibition in vivo at 10 mg/kg [1]: 28%

Compound: CC(=O)Oc1ccccc1C(=O)O [DL-Lysine monoacetylsalicylate, D,L-lysine monoacetylsalicylate]
- Aggregation amplitude E ex vivo (platelet aggregation; I, at 30 min, 1,5 mg/kg i.v. at 15 min): 23,5
- Aggregation amplitude E ex vivo (platelet aggregation; I, at 45 min, 1,5 mg/kg i.v. at 15 min and 0,5 mg/kg at 35 min): 19,5

Compound: CCn1c(=O)c2c(ncn2CCCCC(C)=O)n(CC)c1=O [1-Ethyl-3-ethyl-7-(5-oxohexyl-)-xanthine]
- percentage improvement compared with the placebo controls [1]: 48%
- inhibition in vivo at 10 mg/kg [1]: 41%

Compound: CC(C)Cn1cnc2c1c(=O)n(CCCCC(C)O)c(=O)n2C (stereo not drawn) [1-(5-Hydroxyhexyl)-3-methyl-7-(2-methyl-propyl)-xanthine]
- percentage improvement compared with the placebo controls [1]: 34%
- inhibition in vivo at 10 mg/kg [1]: 23%

Compound: CC(C)Cn1c(=O)c2c(ncn2CCCCC(C)O)n(C)c1=O (stereo not drawn) [1-(2-Methylpropyl)-3-methyl-7-(5-hydroxyhexyl)-xanthine]
- percentage improvement compared with the placebo controls [1]: 39%
- inhibition in vivo at 10 mg/kg [1]: 29%
